Measurements as given in PubChem BioAssay (NCI).
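Grown in 96-well plates, cells were treated for 48 hours with each compound at five concentrations. Insufficient inhibition: endpoint recorded as highest concentration tested. Definition used: TGI = concentration required for complete inhibition of growth.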

Legend:
Assay in all cases: NCI anticancer screen, dose series, 48 h
CCRF-CEM leukemia = system: CCRF-CEM leukemia
EKVX NSCLC = system: EKVX NSCLC
IGROV1 ovarian = system: IGROV1 ovarian
M14 melanoma = system: M14 melanoma
MCF7 breast = system: MCF7 breast
MDA-MB-435 = system: MDA-MB-435
SF-295 CNS = system: SF-295 CNS
TK-10 renal = system: TK-10 renal
U251 CNS = system: U251 CNS
UO-31 renal = system: UO-31 renal

SMILES	TGI (CCRF-CEM leukemia)	TGI (EKVX NSCLC)	TGI (IGROV1 ovarian)	TGI (M14 melanoma)	TGI (MCF7 breast)	TGI (MDA-MB-435)	TGI (SF-295 CNS)	TGI (TK-10 renal)	TGI (U251 CNS)	TGI (UO-31 renal)
CC1(CCCC2(C)CCNC2=O)OCCO1 (stereo not given)	> 10 µM	> 10 µM	> 10 µM	> 10 µM	> 10 µM	> 10 µM	> 10 µM	> 10 µM	> 10 µM	> 10 µM
CC(C)(C)c1cc(C(O)(C(=O)O)C(=O)O)cc(C(C)(C)C)c1O	> 100 µM	> 100 µM	> 100 µM	> 100 µM	> 100 µM	> 100 µM	> 100 µM	> 100 µM	> 100 µM	> 100 µM
C=CCOc1ccc(C2c3c([nH][nH]c3=O)CC(O)(OCC)C2C(=O)OCC)cc1OC (stereo not given)	> 100 µM	> 100 µM	> 100 µM	> 100 µM	> 100 µM	> 100 µM	> 100 µM	> 100 µM	> 100 µM	> 100 µM
COc1cc2c(cc1OCCCC(=O)Nc1cc(C(=O)Nc3cc(C(=O)Nc4cc(C(=O)NCCCN(C)C)n(C)c4)n(C)c3)n(C)c1)N=C[C@@H]1CCCN1C2=O	> 100 µM	7.57 µM	8.74 µM	3.11 µM	7.25 µM	3.48 µM	26.4 µM	3.49 µM	3.01 µM	3.06 µM
Cc1cc(NS(=O)(=O)c2ccc(NC(=O)c3ccc4nc5ccccc5c(Nc5ccc(S(=O)(=O)N=C(N)N)cc5)c4c3)cc2)no1	34.3 µM	30 µM	38.6 µM	34.6 µM	36.4 µM	35.3 µM	38 µM	41.4 µM	30 µM	32.1 µM
O=C1NN=C(c2ccc(Cl)cc2)CC1C1C(=O)N(c2ccccc2)N=C1c1ccccc1 (stereo not given)	76.3 µM	> 100 µM	> 100 µM	> 100 µM	> 100 µM	77.4 µM	> 100 µM	> 100 µM	82.9 µM	56.6 µM
O=C1Cc2c(-c3ccc(Cl)cc3)cc(-c3ccccc3)nc2-c2ccccc2N1	> 63.3 µM	> 56.8 µM	> 50.7 µM	> 100 µM	> 42.5 µM	> 57.1 µM	26.6 µM	21.3 µM	17.8 µM	14.8 µM
COc1ccc2c(c1)OCC1(O)Cc3ccccc3OC21 (stereo not given)	> 100 µM	> 100 µM	> 100 µM	> 100 µM	> 100 µM	> 100 µM	> 100 µM	> 100 µM	> 100 µM	> 100 µM
O=S(=O)(c1ccccc1)n1c(C(O)c2ccncc2)cc2ccccc21 (stereo not given)	> 100 µM	> 100 µM	> 100 µM	> 100 µM	40.5 µM	> 100 µM	> 100 µM	79.7 µM	> 100 µM	44.7 µM
CC/C(Cl)=N\OC(=O)Nc1ccc(OC)cc1	4.97 µM	11.9 µM	17.5 µM	9.77 µM	12.2 µM	25.8 µM	31.1 µM	18.2 µM	> 57.2 µM	20.8 µM
CCOC(=O)C1=CN=C2C(=O)N(c3ccccc3)N(C)C2(C)C1=N (stereo not given)	> 100 µM	> 100 µM	> 100 µM	> 100 µM	> 100 µM	> 100 µM	> 100 µM	> 100 µM	> 100 µM	> 100 µM
O=C(Nc1ccccc1)c1cc2c(cc1Cl)Sc1nccn1S2(=O)=O	> 75.5 µM	60.5 µM	> 72.1 µM	> 58.2 µM	> 60 µM	42.2 µM	> 100 µM	> 100 µM	> 71.7 µM	> 100 µM
c1ccc2c(c1)c1c(n2CCOCCN2CCCCC2)CCCC1	29.6 µM	32.8 µM	28.1 µM	25.7 µM	27.6 µM	26.6 µM	29.7 µM	27.3 µM	32.7 µM	24.6 µM
COc1ccc(-c2oc3ccc(C)cc3c(=O)c2O)cc1	> 100 µM	> 100 µM	> 100 µM	> 100 µM	> 100 µM	> 100 µM	> 100 µM	> 100 µM	> 100 µM	> 100 µM
O=C(O)CC(NC(=O)Nc1ccc([N+](=O)[O-])cc1)C(=O)Nc1ccc([N+](=O)[O-])cc1 (stereo not given)	> 100 µM	> 100 µM	> 100 µM	> 100 µM	> 100 µM	> 100 µM	> 100 µM	> 100 µM	> 100 µM	> 100 µM
CC1(C)C2CCC1(CS(=O)(=O)Nc1ccccc1)C(=O)C2 (stereo not given)	> 100 µM	> 100 µM	> 100 µM	> 100 µM	> 100 µM	> 100 µM	> 100 µM	> 100 µM	> 100 µM	> 100 µM
CN(C(=O)C12C3C4(C(=O)O)C1(C(=O)N(C)C(C)(C)C)C1C2(C(=O)O)C3(C(=O)N(C)C(C)(C)C)C14C(=O)N(C)C(C)(C)C)C(C)(C)C (stereo not given)	> 100 µM	> 100 µM	> 100 µM	> 100 µM	> 100 µM	> 100 µM	> 100 µM	> 100 µM	> 100 µM	> 100 µM
COCn1c2ccc(OC(C)=O)cc2c2c(=O)oc(C)nc21	> 100 µM	> 100 µM	> 100 µM	> 100 µM	> 100 µM	> 100 µM	> 100 µM	> 100 µM	> 100 µM	> 100 µM
